Where two headings read alike, the source gives them in different places.
Columns and labels:
C57BL6/J DIO mice [1] = test system: C57BL6/J DIO mice
C57BL6/J DIO mice [2] = test: Body weight of diet-induced obese mice under daily compound administration; format: in vivo, mouse
Experimental: FIG. 9. Loss of weight in Vandetanib administered mice. C57BL6/J DIO mice were administered 40/mg/kg/day by oral gavage. The mice were weighed daily and the values were expressed as a percentage of the starting weight (day 1). […] Error bars represent standard error of the mean.
FIG. 13. Loss of weight in dasatininb administered mice. C57BL6/J DIO mice were administered 5/mg/kg/day for 27 days. The mice were weighed daily and the values were expressed as a percentage of the starting weight (day 1). […] Error bars represent standard error of the mean.
General preferred layout: The mice were divided into cages of 2-4 mice per cage and allowed to acclimatise to the new housing conditions for at least 2 weeks. The mice were weighed every week to monitor their weight and ensure that the mice are either gaining weight or stabilized prior to initiation of the experiment. Mice were randomly assigned to weight-matched groups for compound administration. Compound dosage and routes of administration were determined based on published literature and pharmacokinetic studies. […]
The dose of Vandetanib chosen for this study was 40 mg/kg/d. This has been determined to be an effective dose for the inhibition of the target VEGFR in various mouse cancer models. […] The mice were weighed on a daily basis during the experiment and monitored for overt signs of toxicity or stress. […]

hedgehog pathway = format: cell-based
[3] = administered orally; cited from earlier work
[4] = human, in vivo, po; cited from earlier work
[5] = cited from earlier work
[6] = test system: human Adenoid Cycstic Carcinoma; settings: 50 mg/kg/d oral gavage for 4 weeks; cited from earlier work
tumour growth = settings: up to 100 mg/kg in mice for 35 days; cited from earlier work
renal cell carcinoma = settings: 50 mg/kg for 21 days; cited from earlier work
[7] = cited from earlier work; remark: listed apart in the source

Structure (SMILES): Cc1nc(Nc2ncc(C(=O)Nc3c(C)cccc3Cl)s2)cc(N2CCN(CCO)CC2)n1 [Dasatinib]
- tolerability / adverse side effects (C57BL6/J DIO mice [1]; mouse, in vivo, ip, 5 mg/kg/day): well tolerated during the course of the study and no adverse side effects were observed
- average loss of starting weight (C57BL6/J DIO mice [2]; 5 mg/kg/day intraperitoneally, by day 28): 20%

Structure (SMILES): CNC1CCC(N(Cc2cccc(-c3ccncc3)c2)C(=O)c2sc3ccccc3c2Cl)CC1 (stereo not drawn) [SAG]
- hedgehog pathway activation (target genes Gli1 and Ptch1) (hedgehog pathway): activation

Structure (SMILES): CNC(=O)c1cc(Oc2ccc(NC(=O)Nc3ccc(Cl)c(C(F)(F)F)c3)cc2)ccn1 [Sorafenib]
- half life [3]: 25 to 48 h
- maximum tolerated dose in humans [4]: 400 mg

Structure (SMILES): C=CCNC1=C2C[C@@H](C)C[C@H](OC)[C@H](O)[C@@H](C)/C=C(\C)[C@H](OC(N)=O)[C@@H](OC)/C=C\C=C(/C)C(=O)NC(=CC1=O)C2=O [Tanespimycin, 17-allylamino-demethoxygeldamycin]
- water solubility [5]: water insoluble

Structure (SMILES): COc1cc2c(Nc3ccc(Br)cc3F)ncnc2cc1OCC1CCN(C)CC1 [Vandetanib]
- tolerability / adverse side effects (C57BL6/J DIO mice [1]; DIO mice, 40 mg/kg/d oral gavage, course of the study): well tolerated during the course of the study and no adverse side effects were observed
- tolerability [6]: well tolerated by the mice and no adverse side effects or loss in body weight was observed
- reduction of body weight (C57BL6/J DIO mice [2]; 40 mg/kg/d oral gavage, stabilized over the course of the experiment): ~10%
- maximum tolerated dose in humans [4]: 300 mg
- effect on clinical condition (tumour growth): no obvious effect on clinical condition
- tolerability (renal cell carcinoma): well tolerated with no drug related changes in weight or behaviour observed

Structure (SMILES): CCC(=O)O[C@]1(C(=O)SCF)[C@H](C)C[C@H]2[C@@H]3C[C@H](F)C4=CC(=O)C=C[C@]4(C)[C@@]3(F)[C@@H](O)C[C@@]21C [fluticasone propionate]
- acute toxic effects ([7]; human, in vivo, po): no acute toxic effects reported
- tolerability ([7]; intranasal 2 mg twice daily for 7 days, healthy human volunteers): well tolerated
- tolerability ([7]; repeat oral doses up to 80 mg daily for 10 days in volunteers, up to 10 mg daily for 14 days in patients): well tolerated
